In patent US20240309319A1, “COMPOSITIONS AND METHODS FOR THE GENERATION OF NEURONS AND USES THEREOF” (Washington University, priority 2021, published 2024):

System: cortical markers TBR1, MEF2C, BRN2, NEUROD2
Experiment: qPCR of cortical markers in miNs versus starting fibroblasts
Type: cell-based, human
Settings: combination of MYT1L and ISX9 with miR-9/9*-124, day 30 miNs, ISX9 10 uM on PID 3, 6, 10, 14
Procedure: Direct Neuronal Reprogramming: Human fibroblasts were directly reprogrammed to miNs as previously described with modifications. Briefly, fibroblasts were transduced with supernatant lentivirus mix comprised of dox-inducible miR-9/9*-124, rtTA, and the transcription factor MYT1L. From PID1 to PID14 cells were treated with DAPT (2 uM) to increase neurite outgrowth and neuronal differentiation, and on PID 3, 6, 10, and 14, cells were also treated with the NEUROD1-activator ISX9 (10 uM) to push cortical fate. Fibroblasts and reprogramming cells were cultured in DMEM+10% FBS through replating at PID5. On PID6, cells were switched to Neurobasal-A with B27+(1000×) and Glutamax (500×), containing 1 μg/mL doxycycline, 200 μM dibutyl cyclic AMP, 1 mM valproic acid, 2 uM DAPT, 200 nM Ascorbic Acid, 10 ng/mL BDNF, 10 ng/mL NT-3, 1 μM retinoic acid, 10 uM ISX9, 100×RVC, and 3 μg/mL puromycin. […]
Quantitative PCR (qPCR): Total RNA was extracted from miNs using TRIzol (Invitrogen, USA) following manufacturer protocol. Reverse-transcription was performed with 150-200 ng of RNA with SuperScript IV First Strand Synthesis SuperMix (Invitrogen, USA). qPCR assay was run with SYBR Green PCR Master Mix and plate was run and analyzed on StepOnePlus Real-Time PCR System (AB Applied Biosystems, Germany). […] Expression values were calculated in Excel using the delta Ct method and Z-score calculation.

O=C(NC1CC1)c1cc(-c2cccs2)on1 [ISX9, Isoxazole 9]
Cortical fate (cortical marker expression by qPCR): sufficient to drive the cortical fate
